From PMC10321483 (Chemical Science, 2023)
Where “and” joins values, the source holds several entries; their conditions need not be identical. Equal values may be shown once. Read-outs that look alike come from different tables or passages of the source.

Columns and labels:
[1] = system: M. tuberculosis (strain H37Rv); experiment: Extracellular assay: M. tuberculosis H37Rv in medium under replicating conditions; assay type: cell-based, Mycobacterium tuberculosis
[2] = target: T1, LdtMt2 (Mycobacterium tuberculosis, UniProt I6Y9J2); experiment: biochemical; assay type: biochemical; design: made in house; host or cells: E. coli
T1 sequence (I6Y9J2 56-408): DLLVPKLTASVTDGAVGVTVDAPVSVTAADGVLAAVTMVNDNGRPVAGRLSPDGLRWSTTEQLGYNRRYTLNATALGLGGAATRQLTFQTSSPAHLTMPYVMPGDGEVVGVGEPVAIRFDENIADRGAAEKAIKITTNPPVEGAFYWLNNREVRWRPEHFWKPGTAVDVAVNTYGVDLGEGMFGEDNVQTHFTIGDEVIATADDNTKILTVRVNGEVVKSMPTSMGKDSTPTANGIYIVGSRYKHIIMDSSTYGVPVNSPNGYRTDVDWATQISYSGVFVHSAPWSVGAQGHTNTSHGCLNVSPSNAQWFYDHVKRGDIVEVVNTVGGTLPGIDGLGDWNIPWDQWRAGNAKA

[3] = target: T2, BlaC (Mycobacterium tuberculosis, UniProt P9WKD3); experiment: BlaC fluorogenic inhibition assay with FC5 (dose-response); assay type: biochemical; conditions: Table S5 HTS hits, 30 minute inhibitor pre-incubation, two independent repeats
T2 construct: made in house; host or cells: E. coli
T2 sequence (P9WKD3 35-307): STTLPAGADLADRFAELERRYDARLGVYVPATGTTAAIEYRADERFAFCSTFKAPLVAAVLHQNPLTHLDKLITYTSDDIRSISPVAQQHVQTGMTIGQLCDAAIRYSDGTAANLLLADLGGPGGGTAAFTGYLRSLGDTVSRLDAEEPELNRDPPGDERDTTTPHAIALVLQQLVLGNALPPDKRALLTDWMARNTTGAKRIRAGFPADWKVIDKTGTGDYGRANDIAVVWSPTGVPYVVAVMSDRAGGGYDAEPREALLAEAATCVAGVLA
Experimental: Two types of controls were used. […] In control 2, the BlaC mixture was substituted with the assay buffer. This mixture was incubated for 30 minutes at room temperature without shaking. […] Data were analysed using ActivityBase (IDBS).

[4] = target: T1, LdtMt2; experiment: biochemical; assay type: binding; design: made in house; host or cells: E. coli
Experimental: LdtMt2 (5 μM) was incubated with the inhibitor (500 μM) in assay buffer (50 mM tris pH 7.5) for 30 minutes at room temperature in 96-well white PCR plates (25 μL final volume, Starlab). SYPRO Orange (final concentration 6×, according to manufacturer's definition, Invitrogen) was then added and the plate was sealed using a transparent plastic film (Polyolefin StarSeal, Starlab). Fluorescence was monitored (with λex = 492 nm and λem = 610 nm) using a CFX96 Touch Real-Time PCR Detection System (Bio-Rad), while the temperature was increased from 20 to 95 °C in increments of 0.2 °C. Melting temperatures (Tms) were determined using the CFX Maestro Software (Bio-Rad).

[5] = target: T1, LdtMt2; experiment: Rate constant of covalent target inactivation (kinact/KI), endpoint competition assay with probe 2; assay type: biochemical; design: made in house; host or cells: E. coli; conditions: 100 nM LdtMt2, 10 µM probe 2, 3 h incubation, n=4
[6] = system: HepG2 cells; experiment: HepG2 cytotoxicity assay (CellTiter Glo); assay type: cell-based; conditions: 48 h, ATP read-out
Experimental: Solutions of the test compounds (250 nL per well; 11 serial dilutions of 1/3 with starting concentration 100 μM) were dispensed in tissue-culture treated black clear-bottomed 384-well plates (Greiner, cat. no. 781091) with an Echo 555 instrument. 25 μL of HepG2 (ATCC HB-8065) cells (∼3000 cells per well) grown to confluency in Eagle's Minimal Essential Medium (MEM) supplemented with 10% (v/v) heat-inactivated FBS, 1% (v/v) non-essential amino acids (NEAA), and 1% (v/v) penicillin/streptomycin were added to each well. Plates were incubated at 37 °C with 20% O2 and 5% CO2 for 48 h. The plates were then equilibrated to room temperature. ATP levels, measured with CellTiter Glo kit (Promega), were used as cell viability read-out. 25 μL of CellTiter Glo substrate dissolved in the buffer was added to each well. Plates were incubated at room temperature for 10 min and read on ViewLux (PerkinElmer) […].

[7] = system: M. tuberculosis (strain H37Rv) growth in THP1 cells; experiment: Intracellular assay: Mtb H37Rv-Luc in THP-1 macrophages; assay type: cell-based, Mycobacterium tuberculosis; conditions: 5 days, extrapolated from dose-response curve
[8] = Intrinsic thiol reactivity (kchem), competition with probe 2 for L-glutathione; assay type: physicochemical; conditions: Table S10 known cyanating compounds; unit printed in b38 only

Q: Which MIC50 [1] does the source give for `N#Cn1c(-c2cc(F)cc(C(F)(F)F)c2)nc2ccccc21` [Compound 23] here?
A: > 100 µM

Q: What about the “LE (ligand efficiency)” value [2] of the same compound?
A: 0.51

Q: And the “pIC50 BlaC” value [3]?
A: < 4.0

Q: What about the “ΔTm: difference in melting point of LdtMt2 relative to unreacted LdtMt2 (43.8 °C)” value [4] of the same compound?
A: -1.3

Q: What about the “Tm: melting point of LdtMt2 after pre-incubation with the compound” value (shortened to “Tm: melting point of LdtMt2”) ([4]; pH 7.5, in °C (unit assumed)) of the same compound?
A: 42.5 ± 0.09

Q: And the kinact/KI [5]?
A: 265 M⁻¹ s⁻¹

Q: What about the IC50 [6] of the same compound?
A: 28.8 µM

Q: With `N#Cn1c(-c2ccnnc2)nc2ccccc21` [Compound 24] as the compound, how does the “LE (ligand efficiency)” value [2] read?
A: 0.66

Q: What about the “pIC50 BlaC” value [3] of the same compound?
A: < 4.0

Q: And the “Tm: melting point of LdtMt2” value ([4]; pH 7.5, in °C (unit assumed))?
A: 42.0 ± 0.00

Q: What about the kinact/KI [5] of the same compound?
A: 158 ± 5.7 M⁻¹ s⁻¹

Q: For `N#Cn1c(-c2cncnc2)nc2ccccc21` [Compound 25], which “LE (ligand efficiency)” value [2] is on record?
A: 0.66

Q: What about the “pIC50 BlaC” value [3] of the same compound?
A: < 4.0

Q: And the kinact/KI [5]?
A: 77.5 ± 6.0 M⁻¹ s⁻¹

Q: For `N#Cn1c(-c2ccc3nccnc3c2)nc2ccccc21` [Compound 26], which “LE (ligand efficiency)” value [2] is on record?
A: 0.53

Q: And the “lowered the melting temperature of LdtMt2 by” value [4]?
A: 2.1 °C

Q: What about the “ΔTm: difference in melting point of LdtMt2 relative to unreacted LdtMt2 (43.8 °C)” value [4] of the same compound?
A: -2.1

Q: And the “Tm: melting point of LdtMt2” value ([4]; pH 7.5, in °C (unit assumed))?
A: 41.7 ± 0.09

Q: What about the kinact/KI [5] of the same compound?
A: 65.0 ± 4.4 M⁻¹ s⁻¹

Q: With `N#Cn1c(-c2ccc(-c3nccs3)cc2)nc2ccccc21` [Compound 29] as the compound, how does the “LE (ligand efficiency)” value [2] read?
A: 0.51

Q: And the “ΔTm: difference in melting point of LdtMt2 relative to unreacted LdtMt2 (43.8 °C)” value [4]?
A: -0.9

Q: And the “Tm: melting point of LdtMt2” value ([4]; pH 7.5, in °C (unit assumed))?
A: 42.9 ± 0.19

Q: What about the kinact/KI [5] of the same compound?
A: 1164 ± 105 M⁻¹ s⁻¹

Q: For `Cc1nc(-c2ccc(-c3nc4ccccc4n3C#N)cc2)cs1` [Compound 30], which MIC50 [1] is on record?
A: > 100 µM

Q: What about the “LE (ligand efficiency)” value [2] of the same compound?
A: 0.49

Q: What about the “ΔTm: difference in melting point of LdtMt2 relative to unreacted LdtMt2 (43.8 °C)” value [4] of the same compound?
A: -1.6

Q: What about the “Tm: melting point of LdtMt2” value ([4]; pH 7.5, in °C (unit assumed)) of the same compound?
A: 42.2 ± 0.00

Q: What about the kinact/KI [5] of the same compound?
A: 236 ± 9.5 M⁻¹ s⁻¹

Q: And the IC50 [6]?
A: 3.98 ± 0.1 µM

Q: With `N#Cn1c(-c2cnc(-c3cccs3)nc2)nc2ccccc21` [Compound 31] as the compound, how does the “LE (ligand efficiency)” value ([2]; Table S5, for LdtMt2) read?
A: 0.51

Q: And the IC50 ([2]; Table S5 HTS hits, 30 minute inhibitor pre-incubation, two independent repeats, read-out: pIC50 LdtMt2 (converted))?
A: 0.0479 µM

Q: And the IC50 ([3]; pIC50 BlaC)?
A: 11.2 µM

Q: What about the “Tm: melting point of LdtMt2” value ([4]; 5 µM LdtMt2, 500 µM inhibitor, SYPRO Orange, 50 mM Tris pH 7.5) of the same compound?
A: 42.1 ± 0.10 °C

Q: And the ΔTm at 500 µM ([4]; read-out: ΔTm: difference in melting point of LdtMt2 relative to unreacted LdtMt2 (43.8 °C))?
A: -1.7 °C

Q: What about the kinact/KI ([5]; read-out: kinact/KI) of the same compound?
A: 609 ± 11 M⁻¹ s⁻¹

Q: Which results are given for `N#Cn1c(-c2ccc(OC3CCOCC3)cc2)nc2ccccc21` [Compound 32]?
A: LE (ligand efficiency) [2]: 0.47; ΔTm: difference in melting point of LdtMt2 relative to unreacted LdtMt2 (43.8 °C) [4]: -1.5; Tm: melting point of LdtMt2 after pre-incubation with the compound ([4]; pH 7.5, in °C (unit assumed)): 42.3 ± 0.09; kinact/KI [5]: 86.3 ± 2.6 M⁻¹ s⁻¹

Q: Which results are given for `N#Cn1c(-c2ccncc2)nc2ccc(-c3ccco3)cc21` [Compound 33]?
A: LE (ligand efficiency) [2]: 0.51; ΔTm: difference in melting point of LdtMt2 relative to unreacted LdtMt2 (43.8 °C) [4]: -0.5; Tm: melting point of LdtMt2 after pre-incubation with the compound ([4]; pH 7.5, in °C (unit assumed)): 43.3 ± 0.09; kinact/KI [5]: 71.8 ± 1.1 M⁻¹ s⁻¹

Q: With `N#Cn1c(-c2ccncc2)nc2ccc(-c3ccncc3)cc21` [Compound 34] as the compound, how does the “LE (ligand efficiency)” value [2] read?
A: 0.49

Q: And the “pIC50 BlaC” value [3]?
A: < 4.0

Q: And the “ΔTm: difference in melting point of LdtMt2 relative to unreacted LdtMt2 (43.8 °C)” value [4]?
A: -1.7

Q: What about the “Tm: melting point of LdtMt2” value ([4]; pH 7.5, in °C (unit assumed)) of the same compound?
A: 42.1 ± 0.09

Q: What about the kinact/KI [5] of the same compound?
A: 68.4 ± 2.7 M⁻¹ s⁻¹

Q: With `N#CN1CCCN1C(=O)OCc1ccc(Cl)c(Cl)c1` [Compound 37] as the compound, how does the “LE (ligand efficiency)” value [2] read?
A: 0.59

Q: And the “ΔTm: difference in melting point of LdtMt2 relative to unreacted LdtMt2 (43.8 °C)” value [4]?
A: -1.5

Q: And the “Tm: melting point of LdtMt2” value ([4]; pH 7.5, in °C (unit assumed))?
A: 42.3 ± 0.09

Q: And the kinact/KI [5]?
A: 8.44 ± 1.2 M⁻¹ s⁻¹

Q: Which MIC50 [1] does the source give for `CC(N)C(=O)NC1CCN(c2ccc(N3CCCC3)cc2C#N)C1` (stereo not shown) [Compound 39] here?
A: > 100 µM

Q: And the “LE (ligand efficiency)” value [2]?
A: 0.47

Q: And the “pIC50 BlaC” value [3]?
A: < 4.0

Q: And the “ΔTm: difference in melting point of LdtMt2 relative to unreacted LdtMt2 (43.8 °C)” value [4]?
A: -0.7

Q: And the “Tm: melting point of LdtMt2” value ([4]; pH 7.5, in °C (unit assumed))?
A: 43.1 ± 0.10

Q: What about the MIC50 intracellular [7] of the same compound?
A: 28.8 ± 0.0 µM and < 50 µM

Q: What about the IC50 [6] of the same compound?
A: > 100 µM

Q: Which “kchem (apparent intrinsic thiol reactivity)” value [8] does the source give for `N#Cn1cnc2ccccc21` [Compound 40] here?
A: 0.90 ± 0.05 M⁻¹ s⁻¹ and 0.90 M⁻¹ s⁻¹

Q: And the “pIC50 LdtMt2” value [2]?
A: 6.31 ± 0.03
